What was measured:
[1] = Inhibition of CK2 at 1 uM; values are per cent of control
[2] = target: T1, Lymphokine-activated killer T-cell-originated protein kinase (Homo sapiens) (UniProt Q96KB5); assay: Inhibition of PBK at 1 uM; values are per cent of control
T1 sequence (whole entry): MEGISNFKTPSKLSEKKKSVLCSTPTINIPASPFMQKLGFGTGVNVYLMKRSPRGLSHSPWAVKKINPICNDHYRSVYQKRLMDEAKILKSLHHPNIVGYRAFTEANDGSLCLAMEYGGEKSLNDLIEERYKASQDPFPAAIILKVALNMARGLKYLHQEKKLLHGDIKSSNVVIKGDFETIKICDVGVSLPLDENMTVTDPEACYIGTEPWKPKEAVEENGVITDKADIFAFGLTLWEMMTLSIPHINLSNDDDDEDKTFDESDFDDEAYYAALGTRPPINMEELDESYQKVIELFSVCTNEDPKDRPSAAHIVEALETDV

[3] = target: T2, MAP kinase-activated protein kinase 5 (Homo sapiens) (UniProt Q8IW41); assay: Inhibition of PRAK at 1 uM; values are per cent of control
T2 sequence (whole entry): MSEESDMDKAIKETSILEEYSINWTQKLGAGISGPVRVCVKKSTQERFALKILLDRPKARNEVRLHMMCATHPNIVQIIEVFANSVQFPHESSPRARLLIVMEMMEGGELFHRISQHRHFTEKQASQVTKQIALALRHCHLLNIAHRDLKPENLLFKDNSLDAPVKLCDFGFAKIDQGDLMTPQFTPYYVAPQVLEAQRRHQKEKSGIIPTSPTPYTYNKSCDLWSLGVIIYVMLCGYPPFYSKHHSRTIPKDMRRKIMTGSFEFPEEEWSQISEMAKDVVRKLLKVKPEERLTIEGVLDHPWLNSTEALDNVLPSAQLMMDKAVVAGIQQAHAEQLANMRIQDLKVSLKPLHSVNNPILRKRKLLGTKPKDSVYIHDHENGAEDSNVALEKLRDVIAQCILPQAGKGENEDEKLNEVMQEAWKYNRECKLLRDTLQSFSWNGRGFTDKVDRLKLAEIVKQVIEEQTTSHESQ

[4] = target: T3, Serine/threonine-protein kinase Sgk1 (Homo sapiens) (UniProt O00141); assay: Inhibition of SGK at 1 uM; values are per cent of control
T3 sequence (whole entry): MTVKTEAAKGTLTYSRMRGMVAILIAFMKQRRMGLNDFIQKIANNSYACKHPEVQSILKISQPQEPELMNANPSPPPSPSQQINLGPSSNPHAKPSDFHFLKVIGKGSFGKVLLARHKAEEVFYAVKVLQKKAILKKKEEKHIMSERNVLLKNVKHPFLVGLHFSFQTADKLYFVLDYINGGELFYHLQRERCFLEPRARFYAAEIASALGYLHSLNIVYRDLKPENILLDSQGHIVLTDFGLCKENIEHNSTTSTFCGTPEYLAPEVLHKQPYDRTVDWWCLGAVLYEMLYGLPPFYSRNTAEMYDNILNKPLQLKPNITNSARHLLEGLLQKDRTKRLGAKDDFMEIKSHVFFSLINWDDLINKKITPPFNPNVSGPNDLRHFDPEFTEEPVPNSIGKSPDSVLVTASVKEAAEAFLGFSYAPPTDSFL

[5] = target: Glycogen synthase kinase-3 beta (Homo sapiens) (UniProt P49841); assay: Inhibition of GSK3-beta at 1 uM; values are per cent of control
[6] = target: Ribosomal protein S6 kinase beta-1 (Homo sapiens) (UniProt P23443); assay: Inhibition of S6K1 at 1 uM; values are per cent of control
[7] = Inhibition of PKB at 1 uM; values are per cent of control
[8] = target: Serine/threonine-protein kinase Nek6 (Homo sapiens) (UniProt Q9HC98); assay: Inhibition of NEK6 at 1 uM; values are per cent of control
[9] = target: Ribosomal protein S6 kinase alpha-5 (Homo sapiens) (UniProt O75582); assay: Inhibition of MSK1 at 1 uM; values are per cent of control
[10] = target: Mitogen-activated protein kinase 8 (Homo sapiens) (UniProt P45983); assay: Inhibition of SAPK1c at 2 uM
[11] = target: Mitogen-activated protein kinase 14 (Homo sapiens) (UniProt Q16539); assay: Inhibition of p38alpha at 1 uM; values are per cent of control
[12] = target: Mitogen-activated protein kinase 1 (Homo sapiens) (UniProt P28482); assay: Inhibition of ERK2 at 1 uM; values are per cent of control
[13] = target: Tyrosine-protein kinase CSK (Homo sapiens) (UniProt P41240); assay: Inhibition of CSK at 1 uM; values are per cent of control
[14] = target: Rho-associated protein kinase 2 (Homo sapiens) (UniProt O75116); assay: Inhibition of ROCK2 at 1 uM; values are per cent of control
[15] = target: T4, Serine/threonine-protein kinase Chk1 (Homo sapiens) (UniProt O14757); assay: Inhibition of CHK1 at 1 uM; values are per cent of control
T4 sequence (whole entry): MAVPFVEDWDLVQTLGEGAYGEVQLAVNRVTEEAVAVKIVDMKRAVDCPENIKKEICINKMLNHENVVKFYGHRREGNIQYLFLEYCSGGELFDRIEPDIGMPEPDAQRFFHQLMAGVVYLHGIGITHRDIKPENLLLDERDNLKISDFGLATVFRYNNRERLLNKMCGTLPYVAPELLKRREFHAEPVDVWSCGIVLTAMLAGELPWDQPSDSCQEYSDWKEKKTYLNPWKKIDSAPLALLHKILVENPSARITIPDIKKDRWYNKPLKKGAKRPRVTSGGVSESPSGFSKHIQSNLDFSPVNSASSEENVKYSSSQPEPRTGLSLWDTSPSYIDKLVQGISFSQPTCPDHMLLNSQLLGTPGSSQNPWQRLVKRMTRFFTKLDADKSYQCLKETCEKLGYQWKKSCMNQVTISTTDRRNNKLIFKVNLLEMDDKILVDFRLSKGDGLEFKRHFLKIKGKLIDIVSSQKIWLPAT

[16] = Inhibition of CK1 at 1 uM; values are per cent of control
[17] = target: Protein kinase C alpha type (Homo sapiens) (UniProt P17252); assay: Inhibition of PKCalpha at 1 uM; values are per cent of control

Chain of Ribosomal protein S6 kinase alpha-5 (Homo sapiens) (O75582 whole entry, looked up): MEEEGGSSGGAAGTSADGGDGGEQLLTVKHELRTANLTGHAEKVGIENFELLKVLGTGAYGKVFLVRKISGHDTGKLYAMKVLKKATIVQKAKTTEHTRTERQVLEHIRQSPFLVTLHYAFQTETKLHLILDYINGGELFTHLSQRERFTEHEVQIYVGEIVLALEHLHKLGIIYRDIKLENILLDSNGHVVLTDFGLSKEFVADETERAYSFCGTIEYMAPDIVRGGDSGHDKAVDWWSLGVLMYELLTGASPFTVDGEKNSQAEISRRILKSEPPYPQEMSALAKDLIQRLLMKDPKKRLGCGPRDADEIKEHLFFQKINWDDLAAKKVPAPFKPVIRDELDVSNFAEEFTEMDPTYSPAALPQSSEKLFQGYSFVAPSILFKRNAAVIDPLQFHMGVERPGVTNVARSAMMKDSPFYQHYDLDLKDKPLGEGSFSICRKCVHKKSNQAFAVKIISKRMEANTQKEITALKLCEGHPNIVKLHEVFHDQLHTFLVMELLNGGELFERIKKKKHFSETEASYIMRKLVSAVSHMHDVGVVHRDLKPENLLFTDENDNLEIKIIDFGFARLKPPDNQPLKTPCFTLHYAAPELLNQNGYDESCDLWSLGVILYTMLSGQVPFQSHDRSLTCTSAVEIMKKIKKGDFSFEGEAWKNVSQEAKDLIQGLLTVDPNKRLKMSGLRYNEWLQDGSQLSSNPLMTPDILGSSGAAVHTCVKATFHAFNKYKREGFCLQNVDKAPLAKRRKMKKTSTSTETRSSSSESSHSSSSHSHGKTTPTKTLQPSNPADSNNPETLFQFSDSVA
Chain of Tyrosine-protein kinase CSK (Homo sapiens) (P41240 2-450 limits assumed): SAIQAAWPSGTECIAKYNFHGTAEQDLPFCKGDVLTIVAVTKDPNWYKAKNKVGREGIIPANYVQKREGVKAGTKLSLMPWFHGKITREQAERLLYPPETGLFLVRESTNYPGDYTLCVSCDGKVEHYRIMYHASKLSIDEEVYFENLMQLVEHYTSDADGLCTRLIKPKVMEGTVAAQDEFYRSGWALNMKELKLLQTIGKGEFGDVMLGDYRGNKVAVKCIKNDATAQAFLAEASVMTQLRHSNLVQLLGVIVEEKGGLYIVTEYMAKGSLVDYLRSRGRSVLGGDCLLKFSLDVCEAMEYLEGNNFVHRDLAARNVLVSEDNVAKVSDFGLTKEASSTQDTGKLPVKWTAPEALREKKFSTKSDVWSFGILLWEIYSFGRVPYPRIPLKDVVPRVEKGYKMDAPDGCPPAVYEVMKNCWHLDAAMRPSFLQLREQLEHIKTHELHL
Chain of Rho-associated protein kinase 2 (Homo sapiens) (O75116 whole entry, looked up): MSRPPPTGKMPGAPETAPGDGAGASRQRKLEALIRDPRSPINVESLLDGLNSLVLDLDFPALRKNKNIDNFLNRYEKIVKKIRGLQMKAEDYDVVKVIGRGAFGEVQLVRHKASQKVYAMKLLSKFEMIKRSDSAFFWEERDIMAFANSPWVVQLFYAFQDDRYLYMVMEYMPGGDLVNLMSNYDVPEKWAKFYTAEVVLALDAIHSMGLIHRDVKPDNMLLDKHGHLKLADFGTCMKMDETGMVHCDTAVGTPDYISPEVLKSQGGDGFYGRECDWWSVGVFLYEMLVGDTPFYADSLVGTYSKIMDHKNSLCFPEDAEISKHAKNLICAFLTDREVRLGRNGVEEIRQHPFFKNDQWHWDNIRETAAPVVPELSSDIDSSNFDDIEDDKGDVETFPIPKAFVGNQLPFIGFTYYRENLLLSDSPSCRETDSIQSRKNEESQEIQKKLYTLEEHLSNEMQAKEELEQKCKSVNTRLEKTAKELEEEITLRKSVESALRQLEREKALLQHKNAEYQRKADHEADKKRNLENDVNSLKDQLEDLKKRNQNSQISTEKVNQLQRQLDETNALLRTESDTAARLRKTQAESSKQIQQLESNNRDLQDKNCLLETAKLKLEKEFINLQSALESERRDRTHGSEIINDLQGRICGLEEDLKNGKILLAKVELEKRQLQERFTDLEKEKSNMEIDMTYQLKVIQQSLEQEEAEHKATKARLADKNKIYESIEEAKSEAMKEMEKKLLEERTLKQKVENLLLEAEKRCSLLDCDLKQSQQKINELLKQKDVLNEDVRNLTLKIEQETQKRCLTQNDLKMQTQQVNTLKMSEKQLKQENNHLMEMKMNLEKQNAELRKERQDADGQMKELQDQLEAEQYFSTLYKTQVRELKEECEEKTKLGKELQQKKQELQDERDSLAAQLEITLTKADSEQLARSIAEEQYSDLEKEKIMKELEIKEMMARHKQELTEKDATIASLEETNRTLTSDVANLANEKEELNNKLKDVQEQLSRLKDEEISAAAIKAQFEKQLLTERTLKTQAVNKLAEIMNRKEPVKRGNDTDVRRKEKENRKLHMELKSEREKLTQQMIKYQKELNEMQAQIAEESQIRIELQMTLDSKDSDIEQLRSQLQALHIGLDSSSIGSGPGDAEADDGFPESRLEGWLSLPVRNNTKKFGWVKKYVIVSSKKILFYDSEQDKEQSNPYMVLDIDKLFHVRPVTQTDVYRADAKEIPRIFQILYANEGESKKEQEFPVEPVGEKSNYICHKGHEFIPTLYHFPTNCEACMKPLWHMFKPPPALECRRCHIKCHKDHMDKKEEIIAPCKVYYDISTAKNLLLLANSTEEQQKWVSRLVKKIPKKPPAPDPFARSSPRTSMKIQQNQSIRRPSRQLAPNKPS
Chain of Mitogen-activated protein kinase 1 (Homo sapiens) (P28482 whole entry): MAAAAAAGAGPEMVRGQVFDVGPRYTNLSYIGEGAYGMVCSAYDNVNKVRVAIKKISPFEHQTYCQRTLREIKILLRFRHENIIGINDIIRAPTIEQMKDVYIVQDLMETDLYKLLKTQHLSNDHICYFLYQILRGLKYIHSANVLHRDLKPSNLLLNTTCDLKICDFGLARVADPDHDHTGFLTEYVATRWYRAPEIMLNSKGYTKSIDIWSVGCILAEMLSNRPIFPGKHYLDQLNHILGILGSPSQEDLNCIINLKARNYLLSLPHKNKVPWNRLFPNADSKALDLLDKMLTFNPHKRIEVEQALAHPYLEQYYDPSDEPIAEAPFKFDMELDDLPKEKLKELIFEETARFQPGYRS
Chain of Ribosomal protein S6 kinase beta-1 (Homo sapiens) (P23443 whole entry, looked up): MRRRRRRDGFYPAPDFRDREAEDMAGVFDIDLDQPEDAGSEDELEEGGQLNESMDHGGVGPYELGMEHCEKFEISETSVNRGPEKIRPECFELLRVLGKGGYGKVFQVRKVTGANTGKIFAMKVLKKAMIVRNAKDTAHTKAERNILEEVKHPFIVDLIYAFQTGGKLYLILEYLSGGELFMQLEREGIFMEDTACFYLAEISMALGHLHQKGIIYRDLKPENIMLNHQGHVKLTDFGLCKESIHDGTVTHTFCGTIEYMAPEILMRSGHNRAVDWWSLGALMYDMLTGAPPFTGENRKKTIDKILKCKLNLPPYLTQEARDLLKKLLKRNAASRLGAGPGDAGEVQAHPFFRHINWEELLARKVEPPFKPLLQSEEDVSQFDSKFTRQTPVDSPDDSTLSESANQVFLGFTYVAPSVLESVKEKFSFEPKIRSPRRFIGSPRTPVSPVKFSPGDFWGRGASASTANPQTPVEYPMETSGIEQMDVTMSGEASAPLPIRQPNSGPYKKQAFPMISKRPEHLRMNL
Chain of Serine/threonine-protein kinase Nek6 (Homo sapiens) (Q9HC98 whole entry): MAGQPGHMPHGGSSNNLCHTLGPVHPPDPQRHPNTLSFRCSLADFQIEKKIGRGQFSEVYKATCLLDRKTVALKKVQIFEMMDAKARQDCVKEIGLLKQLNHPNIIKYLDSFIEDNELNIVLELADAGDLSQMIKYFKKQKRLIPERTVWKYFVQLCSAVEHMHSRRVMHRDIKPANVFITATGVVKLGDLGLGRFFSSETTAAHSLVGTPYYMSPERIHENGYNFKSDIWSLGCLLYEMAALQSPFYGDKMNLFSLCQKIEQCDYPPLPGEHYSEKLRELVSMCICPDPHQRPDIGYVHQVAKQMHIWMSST
Chain of Mitogen-activated protein kinase 14 (Homo sapiens) (Q16539 whole entry): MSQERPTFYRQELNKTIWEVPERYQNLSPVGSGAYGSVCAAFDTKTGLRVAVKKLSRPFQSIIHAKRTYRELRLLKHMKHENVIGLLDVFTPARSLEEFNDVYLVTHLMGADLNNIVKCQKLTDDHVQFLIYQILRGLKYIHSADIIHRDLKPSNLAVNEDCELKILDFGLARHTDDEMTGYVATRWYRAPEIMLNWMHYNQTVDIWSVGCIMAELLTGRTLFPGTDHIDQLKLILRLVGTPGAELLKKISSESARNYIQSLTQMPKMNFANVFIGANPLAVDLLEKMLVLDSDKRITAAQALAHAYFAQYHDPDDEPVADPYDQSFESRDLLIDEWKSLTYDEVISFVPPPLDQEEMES

| residual activity [1] [%] | residual activity [3] [%] | residual activity [4] [%] | residual activity [5] [%] | residual activity [6] [%] | residual activity [7] [%] | residual activity [8] [%] | residual activity [9] [%] | residual activity [10] [%] | residual activity [11] [%] | residual activity [12] [%] | residual activity [13] [%] | residual activity [14] [%] | residual activity [15] [%] | residual activity [16] [%] | residual activity [17] [%] | SMILES | residual activity [2] [%] |
| --- | --- | --- | --- | --- | --- | --- | --- | --- | --- | --- | --- | --- | --- | --- | --- | --- | --- |
| 90 | 38 | 20 | 1 | 12 | 88 | 86 | 8 | 8 | 96 | 77 | 32 | 54 | 6 | 17 | 29 | O=C1Nc2ccccc2/C1=C(/Nc1ccc(CN2CCCCC2)cc1)c1ccccc1 | 5 |
| 95 | 96 | 124 | 114 | 101 | 106 | 123 | 104 | 99 | 121 | 98 | 96 | 95 | 84 | 102 | 89 | CCNC(=O)c1ccc2c(c1)NC(=O)/C2=C(\Nc1ccc(CN(C)C)cc1)c1ccccc1 | 102 |
| 73 | 59 | 68 | 5 | 76 | 93 | 87 | 36 | 90 | 91 | 95 | 74 | 79 | 8 | 95 | 28 | CN(C)C(=O)c1ccc2c(c1)/C(=C(/Nc1ccc(CN3CCCCC3)cc1)c1ccccc1)C(=O)N2 | 19 |

The next lines start with the molecule.

| SMILES | residual activity [1] [%] | residual activity [3] [%] | residual activity [4] [%] | residual activity [5] [%] | residual activity [6] [%] | residual activity [7] [%] | residual activity [8] [%] | residual activity [9] [%] | residual activity [10] [%] | residual activity [11] [%] | residual activity [12] [%] | residual activity [13] [%] | residual activity [14] [%] | residual activity [15] [%] | residual activity [16] [%] | residual activity [17] [%] | residual activity [2] [%] |
| --- | --- | --- | --- | --- | --- | --- | --- | --- | --- | --- | --- | --- | --- | --- | --- | --- | --- |
| CCNC(=O)c1ccc2c(c1)NC(=O)/C2=C(\Nc1ccc(N(CCN(C)C)S(C)(=O)=O)cc1)c1ccccc1 | 94 | 67 | 107 | 124 | 100 | 90 | 118 | 105 | 105 | 110 | 104 | 83 | 88 | 51 | 100 | 100 | 101 |
| CCN(C)C(=O)c1ccc2c(c1)NC(=O)/C2=C(\Nc1ccc(CN2CCCCC2)cc1)c1ccccc1 | 98 | 87 | 123 | 82 | 96 | 97 | 88 | 92 | 89 | 92 | 96 | 72 | 88 | 74 | 108 | 88 | 150 |
| CCNCc1ccc(N/C(=C2\C(=O)Nc3cc(C(=O)N(C)CC)ccc32)c2ccccc2)cc1 | 86 | 70 | 106 | 56 | 89 | 92 | 92 | 83 | 91 | 85 | 87 | 78 | 80 | 85 | 90 | 85 | 88 |

Source: ChEMBL document CHEMBL1268952, “Design, synthesis, and evaluation of indolinones as inhibitors of the transforming growth factor β receptor I (TGFβRI)” (J Med Chem, 2010)
